Measurements published in PubChem BioAssay AID220 (DTP/NCI, 2004).
Records with an inconclusive call do not appear.

Tested on: CD8F1 mice, subcutaneous mammary adenocarcinoma, T/C%
Test: NCI In Vivo Anticancer Drug Screen. Data for tumor model Mammary Adenocarcinoma CD8F1 (subcutaneous) in CD8F1
Settings: higher = larger tumour
Method: The antitumor activity of compounds was measured in mice bearing transplantable tumors. Survival or tumor size were measured and the results are expressed as the measurement made in the treated group (T) divided by the measurement made in the vehicle treated control group (C). The tumor model used in this assay is Mammary Adenocarcinoma CD8F1 (subcutaneous) in CD8F1

[1] = endpoint: median tumor weight (est.), dose: 25.0 mg/kg/injection, schedule: Q07DX005 (ip), vehicle: Klucel (hydroxypropylcellulose) (HPC)
[2] = endpoint: median tumor weight (est.), dose: 50.0 mg/kg/injection, schedule: Q07DX005 (ip), vehicle: Klucel (hydroxypropylcellulose) (HPC)
[3] = endpoint: median tumor weight (est.), dose: 100.0 mg/kg/injection, schedule: Q07DX005 (ip), vehicle: Klucel (hydroxypropylcellulose) (HPC)
[4] = endpoint: median tumor weight (est.), dose: 200.0 mg/kg/injection, schedule: Q07DX005 (ip), vehicle: Klucel (hydroxypropylcellulose) (HPC)
[5] = endpoint: median tumor weight change, dose: 250.0 mg/kg/injection, schedule: Q01DX001 (ip), vehicle: saline

CN(C)/N=N/c1nc[nH]c1C(N)=O
T/C (endpoint: median tumor weight (est.), dose: 25.0 mg/kg/injection, schedule: Q07DX004 (ip), vehicle: saline): 102 % of control
T/C [1]: 118 % of control
T/C (endpoint: median tumor weight (est.), dose: 50.0 mg/kg/injection, schedule: Q07DX004 (ip), vehicle: saline): 111 % of control
T/C [2]: 81 % of control
T/C (endpoint: median tumor weight (est.), dose: 100.0 mg/kg/injection, schedule: Q07DX004 (ip), vehicle: saline): 90 % of control
T/C [3]: 46 % of control
T/C (endpoint: median tumor weight (est.), dose: 200.0 mg/kg/injection, schedule: Q07DX004 (ip), vehicle: saline): 62 % of control
T/C [4]: 26 % of control
T/C (endpoint: median tumor weight (est.), dose: 400.0 mg/kg/injection, schedule: Q07DX004 (ip), vehicle: saline): 13 % of control
T/C (endpoint: median tumor weight (est.), dose: 400.0 mg/kg/injection, schedule: Q07DX005 (ip), vehicle: Klucel (hydroxypropylcellulose) (HPC)): 16 % of control

O=C(CCBr)N1CCN(C(=O)CCBr)CC1
T/C (endpoint: median tumor weight (est.), dose: 10.0 mg/kg/injection, schedule: Q07DX005 (ip), vehicle: Klucel (hydroxypropylcellulose) (HPC)): 94 % of control
T/C (endpoint: median tumor weight (est.), dose: 20.0 mg/kg/injection, schedule: Q07DX005 (ip), vehicle: Klucel (hydroxypropylcellulose) (HPC)): 53 % of control
T/C (endpoint: median tumor weight (est.), dose: 40.0 mg/kg/injection, schedule: Q07DX005 (ip), vehicle: Klucel (hydroxypropylcellulose) (HPC)): 67 % of control
T/C (endpoint: median tumor weight (est.), dose: 80.0 mg/kg/injection, schedule: Q07DX005 (ip), vehicle: Klucel (hydroxypropylcellulose) (HPC)): 42 % of control
T/C (endpoint: median tumor weight (est.), dose: 160.0 mg/kg/injection, schedule: Q07DX005 (ip), vehicle: Klucel (hydroxypropylcellulose) (HPC)): 19 % of control
T/C (endpoint: median tumor weight (est.), dose: 320.0 mg/kg/injection, schedule: Q07DX005 (ip), vehicle: Klucel (hydroxypropylcellulose) (HPC)): 6 % of control

CN(C)N=Nc1cn[nH]c1C(N)=O
T/C [1]: 97 % of control
T/C [2]: 56 % of control
T/C [3]: 73 % of control
T/C [4]: 57 % of control

O=C(O)C(CSC(c1ccccc1)(c1ccccc1)c1ccccc1)N=Cc1cccs1 (stereo unspecified)
T/C (endpoint: median tumor weight change, dose: 62.5 mg/kg/injection, schedule: Q01DX001 (ip), vehicle: suspension in saline): 112 % of control
T/C (endpoint: median tumor weight change, dose: 125.0 mg/kg/injection, schedule: Q01DX001 (ip), vehicle: suspension in saline): 111 % of control
T/C [5]: 64 % of control
T/C (endpoint: median tumor weight change, dose: 250.0 mg/kg/injection, schedule: Q01DX001 (ip), vehicle: suspension in saline): 95 % of control

C=C(C)C12CC(C)C34OC5(CCCCCCCC(C)C6C(C)C(OC(=O)c7ccccc7)C(O)(C(O)C7(COC(=O)CCCCCCCCCCCCCCC)OC7C3C1O5)C64)O2 (stereo unspecified)
T/C (endpoint: mean tumor weight, dose: 25.0 micrograms/kg/injection, schedule: Q01DX009 (ip), vehicle: Klucel (hydroxypropylcellulose) (HPC)): 82 % of control
T/C (endpoint: mean tumor weight, dose: 50.0 micrograms/kg/injection, schedule: Q01DX009 (ip), vehicle: Klucel (hydroxypropylcellulose) (HPC)): 150 % of control
T/C (endpoint: mean tumor weight, dose: 100.0 micrograms/kg/injection, schedule: Q01DX009 (ip), vehicle: Klucel (hydroxypropylcellulose) (HPC)): 114 % of control
T/C (endpoint: mean tumor weight, dose: 200.0 micrograms/kg/injection, schedule: Q01DX009 (ip), vehicle: Klucel (hydroxypropylcellulose) (HPC)): 151 % of control

OCCCN1CCCCC1CO (stereo unspecified)
T/C (endpoint: median tumor weight change, dose: 125.0 mg/kg/injection, schedule: Q01DX001 (ip), vehicle: saline): 78 % of control
T/C [5]: 103 % of control
T/C (endpoint: median tumor weight change, dose: 500.0 mg/kg/injection, schedule: Q01DX001 (ip), vehicle: saline): 105 % of control
T/C (endpoint: median tumor weight change, dose: 1000.0 mg/kg/injection, schedule: Q01DX001 (ip), vehicle: saline): 103 % of control

CSCS(=O)C[C@H](CO)NC(=O)/C=C/c1c(C)[nH]c(=O)[nH]c1=O (stereo partly specified)
T/C (endpoint: median tumor weight (est.), dose: 0.12 mg/kg/injection, schedule: Q07DX005 (ip), vehicle: saline): 100 % of control
T/C (endpoint: median tumor weight (est.), dose: 0.25 mg/kg/injection, schedule: Q07DX005 (ip), vehicle: saline): 76 % of control
T/C (endpoint: median tumor weight (est.), dose: 0.5 mg/kg/injection, schedule: Q07DX005 (ip), vehicle: saline): 50 % of control
T/C (endpoint: median tumor weight (est.), dose: 4.0 mg/kg/injection, schedule: Q07DX005 (ip), vehicle: saline): 10 % of control
